# Results as given in patent US20110159515A1, “COMPOSITIONS AND METHODS FOR THE RAPID GROWTH AND DETECTION OF MICROORGANISMS” (SOLUS SCIENTIFIC SOLUTIONS LIMITED, priority 2008, published 2011).
# Values joined by “and” are separate entries in the source; they are usually repeats but may differ in a detail not shown here. Identical values can stand only once. Like-named read-outs stand apart in the source and are kept apart here.
# What was measured:
# [1] = tested on: L. innocua; experiment: Direct binding Salmonella assay (chemiluminescence immunosorbent); details: 10^6 L. innocua; detergent level not given
# Method: (§1) The sample was heated to 100° C. for 5 minutes and allowed to cool. One hundred microlitres of each test sample was added directly to a well of a solid white 96 well high binding microtitre plate (Greiner Bio One) and incubated at 37° C. for 30 minutes. During incubation, the lipid A portion of the LPS binds to the surface of the plate via non-covalent hydrophobic interactions (FIG. 1a (1), FIG. 1b(1)).
# (§2) The final concentration of antibody per well was 50 ng. The plate-bound sample (Salmonella LPS/core oligosaccharide) and antibody were incubated in the coated wells for 30 minutes as 37° C. Following incubation, plates were washed three times in wash buffer and pat dried prior to detection (FIG. 1a(2), FIG. 1b(2)).
# (§3) When the anti-Salmonella is directly labelled with acridinium ester, plates were placed into a luminometer. 30 μl of trigger solution A and 60 μl of trigger solution B was added to each well of the microtitre plate to initiate light output from conjugated acridinium ester (FIG. 1a(3)). The luminometer settings were as follows:
# (§4) When the anti-Salmonella antibody is not labelled, a second binding member, a goat anti-mouse IgG2b conjugate is used. Post column IgG2b was diluted 1:100 in a diluent comprising 3% (w/v) non-fat milk powder and 0.05% (v/v) Tween 20 and 100 ul of this solution was added to each well of the plate (FIG. 1b(3)). Following incubation at 37° C. for 60 minutes the plate was washed four times in wash buffer, dried and read as above (FIG. 1b(4)).
# Monoclonal antibody (1:100 dilution) was incubated with either Salmonella or Listeria to determine optimum incubation times:
# Monoclonal antibody (1:200 dilution) was incubated with either Salmonella or Listeria to determine optimum incubation times: […]
# [2] = tested on: S. aberdeen; experiment: as above; details: detergent level not given
# Method: as §1, with “After 5 hours of culture, a 2 ml aliquot of the sample was removed and SDS was added to a final concentration of 0.5% (w/v). The” for “The”
# as §2, §3, §4
# The wells of an assay plate are coated with standard concentrations of bacteria for 1 hour at 37° C. These standard concentrations are: 10^6, 10^5, 5×10^4, 2.5×10^4, 10^4 and 5×10^3 and blank wells containing 10^6 E. coli. The fractions to be tested are diluted 1:100 in assay buffer and […] is added to each well and incubated at 37° C. for 20 minutes. The wells are then read on the luminometer, as above.
# [3] = tested on: Salmonella; experiment: Growth response in tryptic soy broth with additive, A620 turbidity; format: cell-based, Salmonella aberdeen; details: for A620: Salmonella
# [4] = tested on: E. coli; experiment: as above; format: cell-based; details: for A620: E. coli
# [5] = tested on: Staphylococcus aureus
# [6] = tested on: Shigella flexneri
# [7] = 10^1 bacteria (species not given)
# [8] = 10^2 bacteria (species not given)
# [9] = 10^3 bacteria (species not given)
# [10] = 10^4 bacteria (species not given)
# [11] = 10^5 bacteria (species not given)
# [12] = 10^6 bacteria (species not given)
# [13] = 5 mg/litre brilliant green, high absorbance values due to absorbance of Brilliant Green
# [14] = 7 mg/litre brilliant green, high absorbance values due to absorbance of Brilliant Green
# [15] = 10 mg/litre brilliant green, high absorbance values due to absorbance of Brilliant Green
# [16] = 2 to 16 g/L, tryptic soy broth, 37° C., 18 hours
compound,measurement,setting,value
"CCCCCCCCCCCCCCCC[N+](C)(C)C.[Br-] [CTAB, cetyltrimethyammonium bromide]","signal, release and detection of core oligosaccharide",[1],7593 relative light units
same,"signal, release and detection of core oligosaccharide",[2]; [7],8901 relative light units
same,"signal, release and detection of core oligosaccharide",[2]; [8],9746 relative light units
same,"signal, release and detection of core oligosaccharide",[2]; [9],21541 relative light units
same,"signal, release and detection of core oligosaccharide",[2]; [10],203215 relative light units
same,"signal, release and detection of core oligosaccharide",[2]; [11],775871 relative light units
same,"signal, release and detection of core oligosaccharide",[2]; [12],866920 relative light units
"CCCCCCCCCCCCCCCC[N+](C)(C)C.[Cl-] [CTAC, cetyltrimethyammoniumchloride]","signal, release and detection of core oligosaccharide",[1],7892 relative light units
same,"signal, release and detection of core oligosaccharide",[2]; [7],10321 relative light units
same,"signal, release and detection of core oligosaccharide",[2]; [8],12485 relative light units
same,"signal, release and detection of core oligosaccharide",[2]; [9],22758 relative light units
same,"signal, release and detection of core oligosaccharide",[2]; [10],205093 relative light units
same,"signal, release and detection of core oligosaccharide",[2]; [11],792108 relative light units
same,"signal, release and detection of core oligosaccharide",[2]; [12],881712 relative light units
C[C@H](CCC(=O)[O-])[C@H]1CC[C@H]2[C@@H]3[C@H](O)C[C@@H]4C[C@H](O)CC[C@]4(C)[C@H]3C[C@H](O)[C@]12C.[Na+] [SODIUM CHOLATE],"signal, release and detection of core oligosaccharide",[1],7495 relative light units
same,"signal, release and detection of core oligosaccharide",[2]; [7],8858 relative light units
same,"signal, release and detection of core oligosaccharide",[2]; [8],8921 relative light units
same,"signal, release and detection of core oligosaccharide",[2]; [9],12088 relative light units
same,"signal, release and detection of core oligosaccharide",[2]; [10],67710 relative light units
same,"signal, release and detection of core oligosaccharide",[2]; [11],529553 relative light units
same,"signal, release and detection of core oligosaccharide",[2]; [12],917476 relative light units
CCN(CC)c1ccc(C(=C2C=CC(=[N+](CC)CC)C=C2)c2ccccc2)cc1 [brilliant green],levels at which growth of Salmonella is limited,[3],≥ 0.3 mg/L
same,optimum level for growth of Salmonella with inhibition of competing bacteria,[3]; FIG. 4,0.15 mg/L
same,A620,[3]; 0.15 mg/litre brilliant green,0.255 and 0.229
same,A620,[3]; 0.3 mg/litre brilliant green,0.046 and 0.041
same,A620,[3]; 1 mg/litre brilliant green,0.057 and 0.040
same,A620,[3]; 3 mg/litre brilliant green,0.072 and 0.061
same,A620,[3]; [13],0.282 and 0.256
same,A620,[3]; [14],0.606 and 0.569
same,A620,[3]; [15],0.614 and 0.607
same,levels at which growth of E. coli is limited,[4],≥ 0.0003 g/L
same,A620,[4]; 0.15 mg/litre brilliant green,0.102 and 0.118
same,A620,[4]; 0.3 mg/litre brilliant green,0.043 and 0.062
same,A620,[4]; 1 mg/litre brilliant green,0.037 and 0.035
same,A620,[4]; 3 mg/litre brilliant green,0.041 and 0.034
same,A620,[4]; [13],0.250 and 0.230
same,A620,[4]; [14],0.524 and 0.500
same,A620,[4]; [15],0.624 and 0.665
"O=C([O-])CC(O)(CC(=O)[O-])C(=O)[O-].[Na+].[Na+].[Na+] [sodium citrate, tri-sodium citrate]",levels at which growth of Staphylococcus is limited,[5],≥ 5 g/L
same,growth response of Shigella over those of Staphylococcus and E. coli,[6]; 15 g/L,significantly increased
same,effect on growth of Shigella,[6]; FIG. 6,enhanced
same,levels at which growth of E. coli is limited,[4],≥ 5 g/L
O=S(=O)([O-])SSS(=O)(=O)[O-].[Na+].[Na+] [sodium tetrathionate],effect on growth of Staphylococcus,[5]; [16],inhibited
same,levels at which growth of Salmonella is inhibited,[3],above 16 g/L
same,effect on growth of Salmonella,[3]; [16],un-affected or promoted
same,effect on the growth of Salmonella,[3]; 8 g/litre,clear enhancing effect
same,A620,[3]; 4 g/litre tetrathionate,0.187 and 0.179
same,A620,[3]; 8 g/litre tetrathionate,0.818 and 0.848
same,A620,[3]; 12 g/litre tetrathionate,0.226 and 0.270
same,A620,[3]; 15 g/litre tetrathionate,0.167 and 0.186
same,A620,[3]; 20 g/litre tetrathionate,0.150 and 0.139
same,A620,[3]; 25 g/litre tetrathionate,0.086 and 0.099
same,A620,[3]; 30 g/litre tetrathionate,0.059 and 0.073
same,levels in a culture media that significantly inhibit the growth of Salmonella spp,[3]; summary statement,above 20 g/L
same,effect on growth of Shigella,[6]; [16],inhibited
same,levels that inhibit the growth of E. coli,[4],> 4 g/L
same,effect on growth of E. coli,[4]; [16],inhibited
same,A620,[4]; 4 g/litre tetrathionate,0.096 and 0.104
same,A620,[4]; 8 g/litre tetrathionate,0.078 and 0.073
same,A620,[4]; 12 g/litre tetrathionate,0.053 and 0.048
same,A620,[4]; 15 g/litre tetrathionate,0.011
same,A620,[4]; 20 g/litre tetrathionate,0.015 and 0.018
same,A620,[4]; 25 g/litre tetrathionate,0.023 and 0.022
same,A620,[4]; 30 g/litre tetrathionate,0.021 and 0.020
TRITON X-100,"signal, release and detection of core oligosaccharide",[1],7076 relative light units
same,"signal, release and detection of core oligosaccharide",[2]; [7],9981 relative light units
same,"signal, release and detection of core oligosaccharide",[2]; [8],10494 relative light units
same,"signal, release and detection of core oligosaccharide",[2]; [9],22570 relative light units
same,"signal, release and detection of core oligosaccharide",[2]; [10],203602 relative light units
same,"signal, release and detection of core oligosaccharide",[2]; [11],867745 relative light units
same,"signal, release and detection of core oligosaccharide",[2]; [12],455886 relative light units
ammonium ferric citrate,levels at which growth of Staphylococcus is limited,[5],≥ 0.25 g/L
same,effect on growth of Salmonella,"[3]; levels above 0.25 g/l, FIG. 5",unaffected
same,optimum level for growth of Shigella,[6]; FIG. 5,0.25 g/L
same,levels at which growth of E. coli is limited,[4],≥ 0.25 g/L
